According to patent US20020035243A1, “Transport system conjugates” (priority 1998, published 2002):
Numbered stars: 1 amine (or outer) side, 2 acyl side, 3 side chain; on linkers, the order of the positions; unused ones are H or OH. Ends that are not written are not given here. Ethylenediamine = C(CN[*:2])N[*:1]

Experiments:
[1] = tested on: Cloudman S91 melanoma cells; assay: Melanin formation in melanoma cells with and without α-MSH (indirect measure of TMP penetration); format: cell-based; conditions: for OD450 nm (melanin content of lysate): 5 days
Description: Cloudman S91 melanoma cells (ATCC CCL-53.1) are cultivated to confluence in DMEM+10% FCS in 24-well culture dishes. The S91 cells (0.5 ml per culture) are incubated for 5 days with and without TMP and with 15 nM α-MSH and then harvested. The TMP/TMP-L is added at least 2 hours before the α-MSH. For determination of the melanin, the medium is discarded and the adhering cells are washed 1× with PBS. The cells are then lysed with 0.1 ml of 0.2 M NaOH and the melanin content of the lysate is measured at 450 nm. The cultures of the experimental series are made up in duplicate, the 2nd batch being used to determine the cell count by the MTT test (Mosmann T., J. of Immun. Methods 1983, 65, 55-63). The cell count indicates growth inhibiting effects and the melanin content is given relative to the cell count (OD450 nm/10^6 cells).

[2] = tested on: smooth muscle cells; assay: Penetration of carrier-conjugated peptides into smooth muscle cells; immunofluorescence of α-SM-actin polymerization; format: cell-based, Wistar rats; conditions: 1 mg/ml in cell culture solution, 1 hour after treatment
Description: Smooth muscle cells are isolated by enzymatic cleavage from the thoracic aorta of 6-week-old Wistar rats. 10,000 cells are placed on 60 mm Petri dishes and allowed to grow for 5-6 h in DME and 10% foetal calf serum. The cells are incubated with the peptides for approximately 1 hour in the incubator, then washed twice with PBS (0.5 mmol CaCl2, 3 mmol MgCl2), then fixed with 3% parafornaldehyde for 10 min and permeabilized with 0.1% Triton X-100 in PBS for 1 minute, double-immunofluorescent stained for α-SM-actin and total actin with mouse anti-α-SM 1 and rabbit polyclonal anti-actin antibody, respectively, followed by staining with sheep anti-mouse IgG conjugated with tetramethylrhodamine B isothiocyanate or fluorescent isothiocyanate and sheep anti-rabbit IgG conjugated with fluorescent isothiocyanate, respectively. The preparations are washed with PBS and fixed in polyvinyl alcohol buffer. Photographs are taken with a Zeiss Axiophot light microscope using a fluorescein or rhodamine filter:
FIGS. 1-6 show the immunofluorescence photographs of the inhibition of polymerization 1 hour after treatment of the cell cultures with the substances, the concentration of the cell culture solution being 1 mg/ml.

[3] = tested on: smooth muscle cells; assay: as above; format: cell-based, Wistar rats; conditions: c=0.5 mg, 1 mg and 2 mg per ml of cell culture solution
[4] = tested on: α-smooth muscle actin; conditions: microinjected into cells; cited from earlier work
[5] = tested on: HaCaT cells; assay: Penetration of carrier-conjugated peptides into keratinocytes; fluorescein-streptavidin staining, confocal microscopy; format: cell-based; conditions: 4 hours incubation, 25 μM
Description: Approx. 5×10^5 HaCaT cells (a gift from Dr. N. E. Fusenig, Deutsches Krebsforschungszentrum Heidelberg) are inoculated into 60 mm culture dishes from a confluent culture (DMEM+5% FCS) and allowed to grow for about 12 hours. The cell cultures are incubated for 4 hours with 25 μM Ac-Leu-Gly-Asp[NH(CH2)5—NH—CO-biotin]-Lys(ε-D,L-6,8-dithiooctanamide)-NH—CH2—CH2—NH-octanoylamide and the cells are washed (2× with FCS-free DMEM) and fixed for 5 min at −20° C. with EtOH/acetic acid (95/5). They are washed three times with PBS and then bound to fluorescein-labelled streptavidin (1000×diluted in PBS+10% FCS). Prior to microscopy the cells were washed a further three times with PBS and dried. Photographs were taken with a confocal scanning laser microscope (Sarastro 2000, Molecular Dynamics) at an excitation wavelength of 488 nm using a 510 nm emission filter.

[6] = S91, 30 nM substance plus 15 nM α-MSH
[7] = S91, 30 nM substance, without α-MSH, untreated control about the same

Compound | fluorescein staining (left picture) [2] | penetration of the peptide into the cell [2] | polymerization of the smooth α-actin filaments [2] | rhodamine staining of the smooth muscle α-actin polymers (right picture) [2] | other results
CCCCCCCC(=O)NNCCNC(=O)C(N)CCCCNC(=O)CCCCC1CCSS1 [free transporter, H-Lys(ε-D,L-6,8-dithiooctanamide)-NH—CH2CH2—NH—NH-octanoylamide] |  |  |  |  | OD450 nm (melanin content of lysate) [1, 6]: approximately 0.7; OD450 nm (melanin content of lysate) [1, 7]: approximately 0.2
Ac-Glu-Glu-Glu-Asp-Lys(E-D,L-6,8-dithiooctanoylamide)-NH—CH2—CH2—NH-hexadecanoylamide (Ac-EEEDK(D,L‑6,8‑dithiooctanoyl)-{Ethylenediamine-hexadecanoyl}) | slight | good penetration | very poorly developed | slight | 
Ac-Glu-Glu-Glu-Asp-Lys(ε-D,L-6,8-dithiooctanoylamide)-NH2 (Ac-EEEDK(D,L‑6,8‑dithiooctanoyl)-NH2) | partial | penetration | partially developed | partial | 
Ac-Glu-Glu-Glu-Asp-Lys(ε-D,L-6,8-dithiooctanoylamide)-NH—CH2—CH2—NH—C═O—(CH2)6—CH3 (Ac-EEEDK(D,L‑6,8‑dithiooctanoyl)-{Ethylenediamine-octanoyl}) | slight | best penetration | very poorly developed | slight | dose-effect relationship [3]: qualitative dose-effect relationship
Ac-Glu-Glu-Glu-Asp-Lys-NH—CH2—CH2—NH-hexadecanoylamide (Ac-EEEDK-{Ethylenediamine-hexadecanoyl}) [reference compound] | strong | no penetration | completely developed | strong | 
Ac-Glu-Glu-Glu-Asp-Lys-NH—CH2—CH2—NH—C═O—(CH2)6—CH3 (Ac-EEEDK-{Ethylenediamine-octanoyl}) [reference compound] | strong | no penetration | completely developed | strong | 
Ac-Glu-Glu-Glu-Asp-NH2 (Ac-EEED-NH2) [reference compound] | strong | no penetration | completely developed | strong | polymerization of α-smooth muscle actin after microinjection in excess [4]: inhibits
Ac-Leu-Gly-Asp[NH(CH2)5—NH—CO-biotin]-Lys(ε-D,L-6,8-dithio-octanamide)-NH—CH2CH2—NH-octanoylamide [Batch d] |  |  |  |  | fluorescent staining of cells [5]: attractive fluorescent staining
Ac-Leu-Gly-Asp[NH(CH2)5—NH—CO-biotin]-OH [Ac-Leu-Gly-Asp-OH] |  |  |  |  | fluorescent staining of cells [5]: no fluorescent staining
EDYHSLYNSHL [free TMP, reference compound] |  |  |  |  | OD450 nm (melanin content of lysate) [1, 6]: approximately 0.7; OD450 nm (melanin content of lysate) [1, 7]: approximately 0.2
H-Glu-Asp-Tyr-His-Ser-Leu-Tyr-Asn-Ser-His-Leu-Lys(ε-D,L-6,8-dithiooctanamide)-NH—CH2CH2—NH-octanylamide (H-EDYHSLYNSHLK-{Ethylenediamine-octanoyl}; not fully specified (residue 12)) [transporter-bound TMP] |  |  |  |  | OD450 nm (melanin content of lysate) [1, 6]: approximately 0.2; OD450 nm (melanin content of lysate) [1, 7]: approximately 0.2; effect on melanin formation induced by α-MSH ([1]; S91 treated with α-MSH combined with transporter-bound TMP): prevention of melanin formation
α-MSH: stimulant of melanin formation added to S91 cells at 15 nM (Ac-SYSMEHFRWGKPV-NH2; ends and bridges not checked; UniProt P01189 138-150, looked up) [reference compound] |  |  |  |  | OD450 nm (melanin content of lysate) ([1]; S91, 15 nM α-MSH alone): approximately 0.7
